Data reported in ChEMBL document CHEMBL5303573, “Mapping human microbiome drug metabolism by gut bacteria and their genes” (Nature, 2019).

What was measured:
[1] = The drug is tested on Escherichia coli strain: BW25113 for biotransformation. The drug concentrations were measured before and after a 12-h incubation by liquid-chromatography-coupled mass spectrometry (LC–MS); conditions: 2 µM
[2] = The drug is tested on Clostridium symbiosum strain: ATCC14940 for biotransformation. The drug concentrations were measured before and after a 12-h incubation by liquid-chromatography-coupled mass spectrometry (LC–MS); conditions: 2 µM
[3] = The drug is tested on Blautia hansenii strain: DSM20583 for biotransformation. The drug concentrations were measured before and after a 12-h incubation by liquid-chromatography-coupled mass spectrometry (LC–MS); conditions: 2 µM
[4] = The drug is tested on Eubacterium ventriosum strain: ATCC27560 for biotransformation. The drug concentrations were measured before and after a 12-h incubation by liquid-chromatography-coupled mass spectrometry (LC–MS); assay type: ADME; set-up: dose 2 uM, timepoint 0 vs 12 hours; conditions: 2 µM
[5] = bacteroides stercoris, 12 h, 2 µM
Description: The drug is tested on Bacteroides stercoris strain: ATCC43183 for biotransformation. The drug concentrations were measured before and after a 12-h incubation by liquid-chromatography-coupled mass spectrometry (LC–MS)

[6] = The drug is tested on Bacteroides vulgatus strain: ATCC8482 for biotransformation. The drug concentrations were measured before and after a 12-h incubation by liquid-chromatography-coupled mass spectrometry (LC–MS); conditions: phocaeicola vulgatus, 2 µM
[7] = The drug is tested on Clostridium ramosum strain: DSM1402 for biotransformation. The drug concentrations were measured before and after a 12-h incubation by liquid-chromatography-coupled mass spectrometry (LC–MS); conditions: thomasclavelia ramosa, 2 µM
[8] = The drug is tested on Bacteroides fragilis strain: HMW610 for biotransformation. The drug concentrations were measured before and after a 12-h incubation by liquid-chromatography-coupled mass spectrometry (LC–MS); conditions: 2 µM
[9] = The drug is tested on Bacteroides pectinophilus strain: ATCC43243 for biotransformation. The drug concentrations were measured before and after a 12-h incubation by liquid-chromatography-coupled mass spectrometry (LC–MS); conditions: 2 µM
[10] = bacteroides intestinalis, 12 h, 2 µM
Description: The drug is tested on Bacteroides intestinalis strain: DSM17393 for biotransformation. The drug concentrations were measured before and after a 12-h incubation by liquid-chromatography-coupled mass spectrometry (LC–MS)

[11] = The drug is tested on Bifidobacterium longum subsp. Infantis strain: CCUG52486 for biotransformation. The drug concentrations were measured before and after a 12-h incubation by liquid-chromatography-coupled mass spectrometry (LC–MS); conditions: 2 µM
[12] = The drug is tested on Alistipes indistinctus strain: DSM22520 for biotransformation. The drug concentrations were measured before and after a 12-h incubation by liquid-chromatography-coupled mass spectrometry (LC–MS); conditions: 2 µM
[13] = The drug is tested on Parabacteroides merdae strain: ATCC43184 for biotransformation. The drug concentrations were measured before and after a 12-h incubation by liquid-chromatography-coupled mass spectrometry (LC–MS); conditions: 2 µM
[14] = The drug is tested on Bacteroides dorei strain: DSM17855 for biotransformation. The drug concentrations were measured before and after a 12-h incubation by liquid-chromatography-coupled mass spectrometry (LC–MS); conditions: phocaeicola dorei, 2 µM
[15] = anaerostipes sp., 12 h, 2 µM
Description: The drug is tested on Anaerostipes sp. strain: fecal isolate for biotransformation. The drug concentrations were measured before and after a 12-h incubation by liquid-chromatography-coupled mass spectrometry (LC–MS)

[16] = The drug is tested on Clostridium asparagiforme strain: DSM15981 for biotransformation. The drug concentrations were measured before and after a 12-h incubation by liquid-chromatography-coupled mass spectrometry (LC–MS); assay type: ADME; set-up: dose 2 uM, timepoint 0 vs 12 hours; conditions: enterocloster asparagiformis, 2 µM
[17] = The drug is tested on Enterobacter cancerogenus strain: ATCC35316 for biotransformation. The drug concentrations were measured before and after a 12-h incubation by liquid-chromatography-coupled mass spectrometry (LC–MS); conditions: 2 µM
[18] = The drug is tested on Ruminococcus torques strain: ATCC27756 for biotransformation. The drug concentrations were measured before and after a 12-h incubation by liquid-chromatography-coupled mass spectrometry (LC–MS); assay type: ADME; set-up: dose 2 uM, timepoint 0 vs 12 hours; conditions: 2 µM
[19] = bacteroides fragilis, 12 h, 2 µM
Description: The drug is tested on Bacteroides fragilis strain: DS-208 for biotransformation. The drug concentrations were measured before and after a 12-h incubation by liquid-chromatography-coupled mass spectrometry (LC–MS)

[20] = enterocloster bolteae, 12 h, 2 µM
Description: The drug is tested on Clostridium bolteae strain: ATCCBAA-613 for biotransformation. The drug concentrations were measured before and after a 12-h incubation by liquid-chromatography-coupled mass spectrometry (LC–MS)

Compound | Bacterial Biotransformation [1] | Bacterial Biotransformation [2] | Bacterial Biotransformation [3] | Bacterial Biotransformation [4] | Bacterial Biotransformation [5] | Bacterial Biotransformation [6] | Bacterial Biotransformation [7] | Bacterial Biotransformation [8] | Bacterial Biotransformation [9] | Bacterial Biotransformation [10] | Bacterial Biotransformation [11] | Bacterial Biotransformation [12] | Bacterial Biotransformation [13] | Bacterial Biotransformation [14] | Bacterial Biotransformation [15] | Bacterial Biotransformation [16] | Bacterial Biotransformation [17] | Bacterial Biotransformation [18] | Bacterial Biotransformation [19] | Bacterial Biotransformation [20]
CN1C(C(=O)Nc2ccccn2)=C(O)c2sccc2S1(=O)=O [TENOXICAM] | Compound NOT metabolized | Compound NOT metabolized | Compound NOT metabolized | Compound NOT metabolized | Compound NOT metabolized | Compound NOT metabolized | Compound NOT metabolized | Compound NOT metabolized | Compound NOT metabolized | Compound NOT metabolized | Compound NOT metabolized | Compound NOT metabolized | Compound NOT metabolized | Compound NOT metabolized | Compound NOT metabolized | Compound NOT metabolized | – | – | – | –
CN[C@H]1CC[C@@H](c2ccc(Cl)c(Cl)c2)c2ccccc21 [SERTRALINE] | Compound NOT metabolized | Compound NOT metabolized | – | – | Compound NOT metabolized | Compound NOT metabolized | Compound NOT metabolized | Compound NOT metabolized | Compound NOT metabolized | Compound NOT metabolized | Compound NOT metabolized | Compound NOT metabolized | Compound NOT metabolized | Compound NOT metabolized | Compound NOT metabolized | Compound NOT metabolized | Compound NOT metabolized | Compound NOT metabolized | Compound NOT metabolized | –
OC(CCN1CCCCC1)(c1ccccc1)C1CCCCC1 (centres undefined) [TRIHEXYPHENIDYL] | Compound NOT metabolized | Compound NOT metabolized | Compound metabolized | Compound NOT metabolized | – | – | – | Compound NOT metabolized | Compound NOT metabolized | Compound NOT metabolized | Compound NOT metabolized | – | – | Compound metabolized | Compound NOT metabolized | Compound NOT metabolized | – | – | Compound NOT metabolized | –
O=P(O)(O)O.c1ccc(CN(CC2=NCCN2)c2ccccc2)cc1 [ANTAZOLINE PHOSPHATE] | – | Compound NOT metabolized | Compound NOT metabolized | Compound NOT metabolized | Compound NOT metabolized | Compound NOT metabolized | – | Compound NOT metabolized | Compound NOT metabolized | Compound NOT metabolized | Compound NOT metabolized | – | Compound NOT metabolized | Compound NOT metabolized | Compound NOT metabolized | Compound NOT metabolized | – | Compound NOT metabolized | Compound NOT metabolized | Compound NOT metabolized
CC(C)c1nc(CN(C)C(=O)N[C@H](C(=O)N[C@@H](Cc2ccccc2)C[C@H](O)[C@H](Cc2ccccc2)NC(=O)OCc2cncs2)C(C)C)cs1 [RITONAVIR] | Compound metabolized | Compound NOT metabolized | Compound metabolized | Compound NOT metabolized | Compound NOT metabolized | Compound metabolized | Compound NOT metabolized | – | Compound NOT metabolized | – | Compound NOT metabolized | Compound NOT metabolized | Compound NOT metabolized | Compound metabolized | Compound NOT metabolized | Compound NOT metabolized | – | Compound NOT metabolized | Compound metabolized | Compound NOT metabolized
COc1cc(C(=O)NCc2ccc(OCCN(C)C)cc2)cc(OC)c1OC [TRIMETHOBENZAMIDE] | – | Compound NOT metabolized | Compound NOT metabolized | Compound NOT metabolized | Compound NOT metabolized | Compound NOT metabolized | – | Compound NOT metabolized | Compound NOT metabolized | Compound NOT metabolized | Compound NOT metabolized | Compound NOT metabolized | Compound NOT metabolized | Compound NOT metabolized | Compound NOT metabolized | Compound NOT metabolized | – | Compound NOT metabolized | Compound NOT metabolized | Compound NOT metabolized
CS(=O)(=O)O.O.O.O.O=C1Cc2cc(CCN3CCN(c4nsc5ccccc45)CC3)c(Cl)cc2N1 [ZIPRASIDONE MESYLATE] | Compound metabolized | Compound NOT metabolized | – | Compound NOT metabolized | Compound NOT metabolized | Compound metabolized | Compound NOT metabolized | Compound NOT metabolized | Compound NOT metabolized | Compound NOT metabolized | Compound NOT metabolized | Compound metabolized | Compound NOT metabolized | Compound NOT metabolized | Compound NOT metabolized | Compound NOT metabolized | Compound NOT metabolized | Compound NOT metabolized | Compound NOT metabolized | Compound NOT metabolized
CC(CN1c2ccccc2Sc2ccccc21)N(C)C (centres undefined) [PROMETHAZINE] | – | Compound NOT metabolized | Compound NOT metabolized | Compound NOT metabolized | Compound NOT metabolized | Compound NOT metabolized | Compound NOT metabolized | Compound NOT metabolized | Compound NOT metabolized | Compound NOT metabolized | Compound NOT metabolized | – | Compound NOT metabolized | – | Compound NOT metabolized | Compound NOT metabolized | – | Compound NOT metabolized | Compound NOT metabolized | Compound NOT metabolized
COc1ccc(C(CN(C)C)C2(O)CCCCC2)cc1 (centres undefined) [VENLAFAXINE] | Compound NOT metabolized | Compound NOT metabolized | – | Compound NOT metabolized | Compound NOT metabolized | Compound NOT metabolized | Compound NOT metabolized | Compound NOT metabolized | Compound NOT metabolized | Compound NOT metabolized | Compound NOT metabolized | Compound NOT metabolized | Compound NOT metabolized | Compound NOT metabolized | Compound NOT metabolized | Compound NOT metabolized | Compound NOT metabolized | Compound NOT metabolized | Compound NOT metabolized | Compound NOT metabolized
